From patent US20250311722A1, “IMPROVED BIOCIDE” (Purgos ApS, priority 2022, published 2025)
“And” between values parts separate entries of the source, which are not always exact repeats. Equal entries are not always repeated.

How the values were obtained:
[1] = test system: bacteria; assay: PVB dispersion treated with NBDA: microbial contamination by cATP (LuminUltra); assay type: cell-based; design: bacteria count: unit not given here
[2] = test system: Pseudomonas aeruginosa, ATCC 15442; assay: EN 1276 quantitative suspension test, bactericidal activity; assay type: cell-based
Protocol: (§1) The test was carried out according to EN 1276, 2019: Chemical disinfectants and antiseptics-Quantitative suspension test for the evaluation of bactericidal activity of chemical disinfectants and antiseptics used in food, industrial, domestic, and institutional areas-Test method and requirements. […] The growth media TSB (Tryptic Soy Broth) was separately inoculated with a culture loop of the microorganisms. The cultures were incubated at 37° C. for 24 hours. Bovine Serum Albumin with a final concentration of 3 g/L Polysorbate 80 with a concentration of 30 g/L The used method was Dilution-neutralization method. 1 mL of interfering substance was pipetted into a tube and 1 mL of the test suspension was added and mixed. […] The solution was incubated at 20° C. for 5 min. and 60 min. respectively. […] After 5 min. of neutralization time 100 μL of the mixture was added to a petri-dish containing TSA media. Another 100 μL was added to a tube containing 900 μL 0.9% NaCl and a serial dilution to 10^-5 was made. The mixtures added to the agar plates were evenly distributed with a Drigalski-spatula. The agar plates were incubated at 37° C. for 24 hours. After incubation, the number of surviving bacteria (CFU) was counted. The test was performed in 3 replicates.

[3] = test system: Staphylococcus aureus, ATCC 6538; assay: as above; assay type: cell-based; settings: all tested contact times (5, 60 min) and concentrations (1.5%, 3%, 6%)
Protocol: as §1

[4] = test system: Coniophora puteana. BAM Ebw. 15; assay: EN 113 test against wood destroying basidiomycetes; assay type: cell-based; settings: for Corrected mass loss / Mass loss: single blocks
Source text: (§2) EN 113, 2020: Durability of wood and wood-based products-Test method against wood destroying basidiomycetes. Assessment of biocidal efficacy of wood preservatives.
(§3) Assessment of the results shown in table XIV.: The protection provided for the wood by the test preservative at the given concentration is deemed to be adequate if: • a) the corrected mean loss is less than 3.0% (m/m) • b) not more than one specimen has suffered a loss in mass greater than 3.0% (m/m) but less than 5.0% (m/m)
(§4) The impregnation process was carried out on 24-03-2021 with the following conditions:
(§5) Pre-vacuum at 0.1 bar for 30 minutes.
(§6) Pressure of 13 bars for 60 minutes.
(§7) Scots pine sapwood (Pinus sylvestris L.) for brown rot fungi with an average density of 589 kg/m3.
(§8) 4 weeks according to EN 113 at 65% RH and 20° C. until stable mass was obtained.
(§9) Ionising radiation (2× 25 kGy).

[5] = test system: Poria placenta. FPRL 280; assay: EN 113 test against wood destroying basidiomycetes; assay type: cell-based; settings: for Corrected mass loss / Mass loss: single blocks
Source text: as §2, §3, §4, §5, §6, §7, §8, §9

[6] = test system: rat; settings: cited from earlier work
[7] = 10% N-BDA in water; cited from earlier work
[8] = 0.50% NBDA, 25° C.(RT), after 1 mo
[9] = 0.50% NBDA, 25° C.(RT), after 1 wk
[10] = 0.50% NBDA, 25° C.(RT), after 3 mo
[11] = 0.50% NBDA, 25° C.(RT), after 6 mo
[12] = 0.50% NBDA, 25° C.(RT), after 1 d
[13] = 1.00% NBDA, 25° C.(RT), after 1 mo
[14] = 1.00% NBDA, 25° C.(RT), after 1 wk
[15] = 1.00% NBDA, 25° C.(RT), after 3 mo
[16] = 1.00% NBDA, 25° C.(RT), after 6 mo
[17] = 1.00% NBDA, 25° C.(RT), after 1 d

`CCCCN(CCO)CCO` [NBDA, N-butyldiethanolamine] gave a BSI [1, 8] of 13, a bacteria count [1, 8] of 34.8 and a pH [1, 8] of 9.73. It also gave a BSI [1, 9] of 17, a bacteria count [1, 9] of 147 and a pH [1, 9] of 9.65. The BSI [1, 10] was 67, the bacteria count [1, 10] was 22.7 and the pH [1, 10] was 9.62. The BSI [1, 11] was 50, the bacteria count [1, 11] was 5.77 and the pH [1, 11] was 9.58. The BSI [1, 12] was 4, the bacteria count [1, 12] was 2930 and the pH [1, 12] was 9.77. For the same molecule, the bacteria count ([1]; 0.50% NBDA, 32° C., after 1 mo) was 9.47, the bacteria count ([1]; 0.50% NBDA, 32° C., after 1 wk) was 81 and the bacteria count ([1]; 0.50% NBDA, 32° C., after 3 mo) was 5.66. For the same molecule, the bacteria count ([1]; 0.50% NBDA, 32° C., after 1 d) was 215, the bacteria count ([1]; 0.50% NBDA, 60° C., after 1 mo) was 126 and the bacteria count ([1]; 0.50% NBDA, 60° C., after 1 wk) was 276. The bacteria count ([1]; 0.50% NBDA, 60° C., after 3 mo) was 4.2, the bacteria count ([1]; 0.50% NBDA, 60° C., after 1 d) was 420 and the BSI [1, 13] was 10. For the same molecule, the bacteria count [1, 13] was 39.1, the pH [1, 13] was 9.86 and the BSI [1, 14] was 24. It also gave a bacteria count [1, 14] of 183, a pH [1, 14] of 9.89 and a BSI [1, 15] of 60. It also gave a bacteria count [1, 15] of 3.77, a pH [1, 15] of 9.93 and a BSI [1, 16] of 83. For the same molecule, the bacteria count [1, 16] was 1.36, the pH [1, 16] was 9.67 and the BSI [1, 17] was 6. For the same molecule, the bacteria count [1, 17] was 1530, the pH [1, 17] was 10.2 and the bacteria count ([1]; 1.00% NBDA, 32° C., after 1 mo) was 17.9. The bacteria count ([1]; 1.00% NBDA, 32° C., after 1 wk) was 13.5, the bacteria count ([1]; 1.00% NBDA, 32° C., after 3 mo) was 0.94 and the bacteria count ([1]; 1.00% NBDA, 32° C., after 1 d) was 338. It also gave a bacteria count ([1]; 1.00% NBDA, 60° C., after 1 mo) of 202, a bacteria count ([1]; 1.00% NBDA, 60° C., after 1 wk) of 387 and a bacteria count ([1]; 1.00% NBDA, 60° C., after 3 mo) of 9.3. For the same molecule, the bacteria count ([1]; 1.00% NBDA, 60° C., after 1 d) was 244, the “effectiveness as sole biocide additive” value ([1]; concentration 0.5%, long term, RT, 32° C. and 60° C.) was “highly effective as the sole biocide additive” and the CFU/plate ([2]; 1.5%, contact time 5 min) was over 165 CFU/plate. The log10 reduction ([2]; 1.5%, contact time 5 min) was under 5 log10, the CFU/plate ([2]; 1.5%, contact time 60 min) was over 165 CFU/plate and the log10 reduction ([2]; 1.5%, contact time 60 min) was under 5 log10. The CFU/plate ([2]; 3.0%, contact time 5 min) was over 165 CFU/plate, the log10 reduction ([2]; 3.0%, contact time 5 min) was under 5 log10 and the CFU/plate ([2]; 3.0%, contact time 60 min) was over 165 CFU/plate. The log10 reduction ([2]; 3.0%, contact time 60 min) was under 5 log10, the CFU/plate ([2]; 6.0%, contact time 5 min) was over 165 CFU/plate and the log10 reduction ([2]; 6.0%, contact time 5 min) was under 5 log10. The CFU/plate ([2]; 6.0%, contact time 60 min) was 25 CFU/plate and 22 CFU/plate and 35 CFU/plate, the “log changes of CFU” value [3] was “lower than 5 log units” and the “Toxic value, Retention of product” value ([4]; Scots pine sapwood) was over 9.86 kg/m^3. The “Toxic value, Solution conc.” value ([4]; Scots pine sapwood) was over 1.43 % w/w, the “Corrected mass loss, Mean” value ([4]; solution conc. 0.36% w/w) was 36.6% and the “Mass loss, Mean” value ([4]; solution conc. 0.36% w/w) was 36.8%. For the same molecule, the Corrected mass loss ([4]; solution conc. 0.36% w/w) was 39.2% and 27.2% and 47.6% and 32.3%, the Mass loss ([4]; solution conc. 0.36% w/w) was 39.4% and 27.4% and 47.8% and 32.5% and the “Corrected mass loss, Mean” value ([4]; solution conc. 0.51% w/w) was 38.3%. The “Mass loss, Mean” value ([4]; solution conc. 0.51% w/w) was 38.5%, the Corrected mass loss ([4]; solution conc. 0.51% w/w) was 42.4% and 39.5% and 34.0% and 37.2% and the Mass loss ([4]; solution conc. 0.51% w/w) was 42.6% and 39.7% and 34.2% and 37.4%. The “Corrected mass loss, Mean” value ([4]; solution conc. 0.72% w/w) was 37.4%, the “Mass loss, Mean” value ([4]; solution conc. 0.72% w/w) was 37.1% and the Corrected mass loss ([4]; solution conc. 0.72% w/w) was 29.8% and 43.3% and 36.9% and 39.7%. The Mass loss ([4]; solution conc. 0.72% w/w) was 29.5% and 43.0% and 36.6% and 39.3%, the “Corrected mass loss, Mean” value ([4]; solution conc. 1.01% w/w) was 40.4% and the “Mass loss, Mean” value ([4]; solution conc. 1.01% w/w) was 39.9%. The Corrected mass loss ([4]; solution conc. 1.01% w/w) was 37.2% and 41.8% and 45.1% and 37.3%, the Mass loss ([4]; solution conc. 1.01% w/w) was 36.7% and 41.4% and 44.6% and 36.8% and the “Corrected mass loss, Mean” value ([4]; solution conc. 1.43% w/w) was 36.1%. The “Mass loss, Mean” value ([4]; solution conc. 1.43% w/w) was 35.0%, the Corrected mass loss ([4]; solution conc. 1.43% w/w) was 31.1% and 37.2% and 38.4% and 37.8% and the Mass loss ([4]; solution conc. 1.43% w/w) was 30.0% and 36.2% and 37.3% and 36.7%. For the same molecule, the “Toxic value, Retention of product” value ([5]; Scots pine sapwood) was 4.87-7.02 kg/m^3, the “Toxic value, Solution conc.” value ([5]; Scots pine sapwood) was 0.72-1.01 % w/w and the “fungicide for preventing wood destruction” value ([5]; concentrations of 0.36%, 0.51%, 0.72%, 1.01% and 1.43%) was “effective as a fungicide”. The “Corrected mass loss, Mean” value ([5]; solution conc. 0.36% w/w) was 14.2%, the “Mass loss, Mean” value ([5]; solution conc. 0.36% w/w) was 14.4% and the Corrected mass loss ([5]; solution conc. 0.36% w/w) was 14.0% and 19.2% and 11.4% and 12.3%. The Mass loss ([5]; solution conc. 0.36% w/w) was 14.2% and 19.4% and 11.6% and 12.5%, the “Corrected mass loss, Mean” value ([5]; solution conc. 0.51% w/w) was 14.6% and the “Mass loss, Mean” value ([5]; solution conc. 0.51% w/w) was 14.8%. For the same molecule, the Corrected mass loss ([5]; solution conc. 0.51% w/w) was 14.0% and 17.1% and 14.2% and 13.3%, the Mass loss ([5]; solution conc. 0.51% w/w) was 14.2% and 17.3% and 14.4% and 13.5% and the “Corrected mass loss, Mean” value ([5]; solution conc. 0.72% w/w) was 8.2%. The “Mass loss, Mean” value ([5]; solution conc. 0.72% w/w) was 7.8%, the Corrected mass loss ([5]; solution conc. 0.72% w/w) was 9.2% and 9.0% and 6.3% and 8.2% and the Mass loss ([5]; solution conc. 0.72% w/w) was 8.9% and 8.7% and 5.9% and 7.9%. For the same molecule, the “Corrected mass loss, Mean” value ([5]; solution conc. 1.01% w/w) was 1.4%, the “Mass loss, Mean” value ([5]; solution conc. 1.01% w/w) was 1.0% and the Corrected mass loss ([5]; solution conc. 1.01% w/w) was 2.5% and 0.1% and 1.3% and 1.9%. For the same molecule, the Mass loss ([5]; solution conc. 1.01% w/w) was 2.0% and −0.3% and 0.8% and 1.4%, the “Corrected mass loss, Mean” value ([5]; solution conc. 1.43% w/w) was 1.5% and the “Mass loss, Mean” value ([5]; solution conc. 1.43% w/w) was 0.4%. The Corrected mass loss ([5]; solution conc. 1.43% w/w) was 0.5% and 4.1% and 0.7% and 0.6%, the Mass loss ([5]; solution conc. 1.43% w/w) was −0.6% and 3.0% and −0.4% and −0.5% and the “LD50 (rat, oral)” value [6] was 4250 mg/kg. For the same molecule, the pH [7] was “around 11.1”.
